Test results as given in patent publication US12343326B2, “Psychoactive medicines and their use for treating psychiatric and neurological conditions and disorders” (Transcend Therapeutics, Inc., priority 2021, dated 2025).
Where two headings read alike, the source gives them in different places. Marks after values point to notes of the source that are not given here.

What was measured:
[1] = biological target: 168 GPCRs (Homo sapiens, UniProt P28222); assay: β-arrestin based GPCR screen (PathHunter / GPCRmax), agonist mode; format: cell-based; parameters: host or cells: PathHunter cell lines; conditions: HTR1B
Procedure: (§1) For agonist determination, cells were incubated with sample to induce response. […] Vehicle concentration was 1%.

[2] = biological target: 168 GPCRs (Homo sapiens, UniProt P08172); assay: as above; format: cell-based; parameters: host or cells: PathHunter cell lines; conditions: CHRM2, Agonist
Procedure: as §1

[3] = biological target: 168 GPCRs (Homo sapiens, UniProt P49146); assay: as above; format: cell-based; parameters: host or cells: PathHunter cell lines; conditions: NPY2R
Procedure: as §1

[4] = biological target: 168 GPCRs (Homo sapiens, UniProt O14842); assay: as above; format: cell-based; parameters: host or cells: PathHunter cell lines
Procedure: as §1

[5] = biological target: 168 GPCRs (Homo sapiens, UniProt P25025); assay: as above; format: cell-based; parameters: host or cells: PathHunter cell lines
Procedure: as §1

[6] = biological target: 168 GPCRs (Homo sapiens, UniProt P51685); assay: as above; format: cell-based; parameters: host or cells: PathHunter cell lines; conditions: CCR8, Agonist
Procedure: as §1

[7] = biological target: 168 GPCRs (Homo sapiens, UniProt P35414); assay: as above; format: cell-based; parameters: host or cells: PathHunter cell lines; conditions: AGTRL1, Agonist
Procedure: as §1

[8] = biological target: 168 GPCRs (Homo sapiens, UniProt P51686); assay: as above; format: cell-based; parameters: host or cells: PathHunter cell lines; conditions: CCR9, Agonist
Procedure: as §1

[9] = biological target: 168 GPCRs (Homo sapiens, UniProt P47211); assay: as above; format: cell-based; parameters: host or cells: PathHunter cell lines
Procedure: as §1

[10] = system: healthy adult subjects; assay: Methylone case series, Cohort 1: safety and tolerability of a single dosing session; format: in vivo, human; conditions: Cohort 1, 4 healthy subjects, total oral dose 790 or 870 mg in one session
[11] = system: patients with a primary diagnosis of PTSD; assay: Case series with long-term follow-up (Example 5): CGI-I, durability, safety; format: in vivo, human
Source text: The patients were not given structured psychotherapy in conjunction with methylone treatment, which differs from recent studies of MDMA that emphasize the importance of a manualized psychedelic-assisted psychotherapy model.
No protected health information was disclosed, and no consent was obtained from patients for use of their archival data. Case narratives were systematically compiled from data collected as part of routine clinical work. Diagnoses were confirmed by an experienced clinician using semi-structured interviews. Baseline symptom severity was evaluated using the Clinical Global Impressions Scale-Severity (CGI-S). Symptom improvement was evaluated using the Clinical Global Impressions Scale-Improvement (CGI-I) following dosing. […] Because these case narratives were examined retrospectively from routine clinical care records, and not gathered prospectively in a research study, more specific validated rating scales for assessing PTSD symptoms were not available. Additionally, follow-up varied, with the length of follow-up ranging from one week (Case 2) to 15 years (Case 16).
Dosing summary: Methylone was administered orally. Other medications were not changed during methylone treatment. […] In several cases, treatment was continued, and, in some cases, the dose was further escalated in later sessions (see Table 5). Booster doses were included for 19 patients in one or more of the sessions. Starting doses were between 100 and 270 mg, and these as well as booster doses were selected based on clinical judgement.

[12] = cited from earlier work
[13] = system: patients with PTSD or MDD; assay: Methylone case series, Cohort 2: CGI-S/CGI-I efficacy and safety; format: in vivo, human
Procedure: CGI-S scale was also evaluated in a subset of patients from Cohort 2 post-treatment. Cohort 2 was evaluated for any observed or reported safety events following a single dosing session. Clinical Global Improvement Scale
Clinical Global Impressions (CGI) scale includes 2 components: CGI-S (“severity”) and CGI-I (“improvement”).
Cohort 2 is composed of 28 patients with PTSD or MDD treated in an outpatient setting.
Only sessions that included methylone dosing were counted as dosing sessions.
Single sessions occurred for 8 of the 28 cases with no booster in two of these cases. In the remainder of the cases, multiple sessions occurred, and booster doses were used in all or some of the remaining patients ([…]) with multiple booster doses used in some or all of the sessions in 15 patients.

[14] = across oral doses of 50 mg to 200 mg
[15] = Cohort 2, N = 28, highest observed

Sequence of 168 GPCRs (Homo sapiens, UniProt O14842) (O14842 whole entry): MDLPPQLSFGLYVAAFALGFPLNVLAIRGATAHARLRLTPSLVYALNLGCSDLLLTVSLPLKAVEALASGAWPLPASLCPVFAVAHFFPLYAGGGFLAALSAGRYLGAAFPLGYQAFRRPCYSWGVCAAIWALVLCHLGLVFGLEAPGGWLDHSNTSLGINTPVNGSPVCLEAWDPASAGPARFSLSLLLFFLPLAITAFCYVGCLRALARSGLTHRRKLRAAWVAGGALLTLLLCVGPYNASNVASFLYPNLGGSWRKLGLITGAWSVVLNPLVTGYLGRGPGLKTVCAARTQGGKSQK
Sequence of 168 GPCRs (Homo sapiens, UniProt P35414) (P35414 whole entry): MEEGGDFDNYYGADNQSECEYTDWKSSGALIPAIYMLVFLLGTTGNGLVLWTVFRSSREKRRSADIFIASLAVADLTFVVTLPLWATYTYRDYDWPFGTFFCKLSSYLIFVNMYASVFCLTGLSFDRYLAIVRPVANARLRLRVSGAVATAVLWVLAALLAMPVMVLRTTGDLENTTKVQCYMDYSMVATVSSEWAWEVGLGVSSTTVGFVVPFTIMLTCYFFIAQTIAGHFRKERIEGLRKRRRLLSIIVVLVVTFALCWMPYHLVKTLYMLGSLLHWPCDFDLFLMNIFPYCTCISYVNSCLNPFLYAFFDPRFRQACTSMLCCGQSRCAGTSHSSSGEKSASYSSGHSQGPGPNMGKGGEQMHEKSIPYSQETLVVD
Sequence of 168 GPCRs (Homo sapiens, UniProt P25025) (P25025 whole entry): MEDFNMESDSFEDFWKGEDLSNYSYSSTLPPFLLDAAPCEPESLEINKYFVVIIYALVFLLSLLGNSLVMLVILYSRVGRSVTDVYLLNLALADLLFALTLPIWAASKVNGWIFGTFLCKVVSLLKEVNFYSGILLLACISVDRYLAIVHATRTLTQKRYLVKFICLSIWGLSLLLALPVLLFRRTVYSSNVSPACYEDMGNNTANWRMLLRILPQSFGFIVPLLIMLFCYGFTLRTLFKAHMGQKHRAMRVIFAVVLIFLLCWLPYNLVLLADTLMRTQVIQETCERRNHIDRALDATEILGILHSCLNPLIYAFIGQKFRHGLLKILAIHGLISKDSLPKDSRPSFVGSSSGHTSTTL
Sequence of 168 GPCRs (Homo sapiens, UniProt P51685) (P51685 whole entry): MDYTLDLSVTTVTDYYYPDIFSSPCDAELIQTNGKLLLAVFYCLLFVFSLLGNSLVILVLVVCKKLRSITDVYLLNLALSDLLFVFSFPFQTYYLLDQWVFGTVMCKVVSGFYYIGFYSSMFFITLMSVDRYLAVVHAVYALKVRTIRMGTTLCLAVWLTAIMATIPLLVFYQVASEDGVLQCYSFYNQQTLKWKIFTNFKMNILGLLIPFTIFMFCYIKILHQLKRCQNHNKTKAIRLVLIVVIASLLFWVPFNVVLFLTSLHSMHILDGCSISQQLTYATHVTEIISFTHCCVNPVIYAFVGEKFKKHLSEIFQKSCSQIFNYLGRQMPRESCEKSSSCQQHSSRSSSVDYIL
Sequence of 168 GPCRs (Homo sapiens, UniProt P51686) (P51686 whole entry): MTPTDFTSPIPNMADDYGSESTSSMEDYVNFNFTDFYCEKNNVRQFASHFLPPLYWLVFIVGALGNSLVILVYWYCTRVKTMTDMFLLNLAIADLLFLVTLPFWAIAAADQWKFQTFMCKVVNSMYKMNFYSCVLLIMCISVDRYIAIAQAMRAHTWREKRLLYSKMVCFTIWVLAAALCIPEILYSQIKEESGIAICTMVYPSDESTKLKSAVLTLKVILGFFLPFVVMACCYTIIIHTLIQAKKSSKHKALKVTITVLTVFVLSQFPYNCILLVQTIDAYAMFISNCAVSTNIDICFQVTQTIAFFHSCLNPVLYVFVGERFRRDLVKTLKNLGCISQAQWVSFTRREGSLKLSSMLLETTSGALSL
Sequence of 168 GPCRs (Homo sapiens, UniProt P08172) (P08172 whole entry): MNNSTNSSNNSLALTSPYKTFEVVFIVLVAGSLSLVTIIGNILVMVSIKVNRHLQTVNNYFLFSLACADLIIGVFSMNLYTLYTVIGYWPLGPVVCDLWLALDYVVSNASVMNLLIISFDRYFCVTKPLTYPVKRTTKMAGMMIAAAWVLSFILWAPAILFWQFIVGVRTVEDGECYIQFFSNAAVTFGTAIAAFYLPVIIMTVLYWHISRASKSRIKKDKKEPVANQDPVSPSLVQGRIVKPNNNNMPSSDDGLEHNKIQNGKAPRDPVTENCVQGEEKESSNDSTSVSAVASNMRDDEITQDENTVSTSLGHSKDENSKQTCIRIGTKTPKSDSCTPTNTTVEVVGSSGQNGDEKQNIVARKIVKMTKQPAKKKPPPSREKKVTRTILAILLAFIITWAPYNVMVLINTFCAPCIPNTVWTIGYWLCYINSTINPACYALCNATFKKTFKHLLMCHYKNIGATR
Sequence of 168 GPCRs (Homo sapiens, UniProt P47211) (P47211 whole entry): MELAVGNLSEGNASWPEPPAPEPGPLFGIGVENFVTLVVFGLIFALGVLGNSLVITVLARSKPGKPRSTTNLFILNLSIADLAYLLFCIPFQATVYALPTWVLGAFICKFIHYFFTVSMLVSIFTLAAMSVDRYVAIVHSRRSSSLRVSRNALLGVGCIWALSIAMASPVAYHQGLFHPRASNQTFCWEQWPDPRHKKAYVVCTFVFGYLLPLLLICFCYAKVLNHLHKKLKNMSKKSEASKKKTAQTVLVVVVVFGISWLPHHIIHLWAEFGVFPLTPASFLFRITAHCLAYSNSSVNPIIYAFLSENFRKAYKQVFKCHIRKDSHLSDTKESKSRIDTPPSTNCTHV
Sequence of 168 GPCRs (Homo sapiens, UniProt P49146) (P49146 whole entry): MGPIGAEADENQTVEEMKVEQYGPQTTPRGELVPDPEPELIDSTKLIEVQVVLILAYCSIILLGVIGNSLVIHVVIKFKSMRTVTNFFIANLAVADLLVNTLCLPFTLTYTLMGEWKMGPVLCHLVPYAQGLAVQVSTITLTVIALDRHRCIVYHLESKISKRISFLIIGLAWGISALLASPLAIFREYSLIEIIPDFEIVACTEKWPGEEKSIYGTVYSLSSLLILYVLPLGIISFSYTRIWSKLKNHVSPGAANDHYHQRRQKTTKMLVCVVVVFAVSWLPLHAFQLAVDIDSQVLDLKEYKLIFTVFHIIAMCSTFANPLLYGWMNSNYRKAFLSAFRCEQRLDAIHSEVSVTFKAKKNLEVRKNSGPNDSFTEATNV
Sequence of 168 GPCRs (Homo sapiens, UniProt P28222) (P28222 whole entry): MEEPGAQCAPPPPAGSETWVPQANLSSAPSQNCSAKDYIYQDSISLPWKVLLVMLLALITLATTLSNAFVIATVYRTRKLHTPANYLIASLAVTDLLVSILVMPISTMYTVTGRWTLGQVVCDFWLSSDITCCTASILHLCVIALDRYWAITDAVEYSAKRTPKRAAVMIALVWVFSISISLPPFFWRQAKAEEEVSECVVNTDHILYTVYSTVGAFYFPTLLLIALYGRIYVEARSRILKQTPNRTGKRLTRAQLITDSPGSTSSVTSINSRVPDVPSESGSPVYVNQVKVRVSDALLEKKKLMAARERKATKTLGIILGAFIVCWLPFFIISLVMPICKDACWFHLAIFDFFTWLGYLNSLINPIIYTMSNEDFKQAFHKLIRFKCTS

With `CNC(C)C(=O)c1ccc2c(c1)OCO2` (stereo not shown) [methylone, 3,4-methylenedioxy-N-methylcathinone] as the molecule, how does the activity at 10 µM ([1]; Agonist mode, 10 uM) read?
The activity at 10 µM was 6.7%.

What about the activity at 1 µM ([1]; Agonist, 1 uM) of the same molecule?
Its activity at 1 µM is 3.3%.

What about the activity at 1 µM ([2]; 1 uM) of the same molecule?
The activity at 1 µM was -0.2%.

And the activity at 10 µM ([2]; 10 uM)?
Its activity at 10 µM is 0.2%.

What about the activity at 10 µM ([3]; Agonist mode, 10 uM) of the same molecule?
The activity at 10 µM was 0.2%.

And the activity at 1 µM ([3]; Agonist, 1 uM)?
The activity at 1 µM was -0.1%.

What about the activity at 10 µM ([4]; FFAR1, Agonist mode, 10 uM) of the same molecule?
Its activity at 10 µM is 4.5%.

What about the activity at 1 µM ([4]; FFAR1, Agonist, 1 uM) of the same molecule?
The activity at 1 µM was 1.7%.

And the activity at 10 µM ([5]; CXCR2, Agonist mode, 10 uM)?
Its activity at 10 µM is 2.6%.

What about the activity at 1 µM ([5]; CXCR2, Agonist, 1 uM) of the same molecule?
Its activity at 1 µM is -0.2%.

And the activity at 1 µM ([6]; 1 uM)?
Its activity at 1 µM is -0.2%.

What about the activity at 10 µM ([6]; 10 uM) of the same molecule?
Its activity at 10 µM is -0.6%.

What about the activity at 1 µM ([7]; 1 uM) of the same molecule?
The activity at 1 µM was -0.9%.

And the activity at 10 µM ([7]; 10 uM)?
The activity at 10 µM was -1.5%.

What about the activity at 1 µM ([8]; 1 uM) of the same molecule?
The activity at 1 µM was -0.5%.

What about the activity at 10 µM ([8]; 10 uM) of the same molecule?
Its activity at 10 µM is 0.2%.

What about the activity at 10 µM ([9]; GALR1, Agonist mode, 10 uM) of the same molecule?
The activity at 10 µM was 0.6%.

What about the activity at 1 µM ([9]; GALR1, Agonist, 1 uM) of the same molecule?
The activity at 1 µM was 0.8%.

And the “adverse effects or after-effects” value [10]?
Its value is “no adverse effects or after-effects were observed or reported”.

And the “discontinuation due to adverse events” value ([11]; 21 patients)?
The value was “no patients discontinued treatment due to adverse events”.

What about the “total adverse events noted” value ([11]; in three of the 21 patients) of the same molecule?
The value was “four”.

What about the “patients achieving CGI-I of 1 (very much improved)” value ([11]; of 21 patients) of the same molecule?
Its value is 9 patients.

And the “patients achieving CGI-I of 2 (much improved)” value ([11]; of 21 patients)?
Its value is 8 patients.

And the half-life [12, 14]?
Its half-life is 6 to 7 h.

And the “time to reach maximum concentrations (Tmax)” value [12, 14]?
The value was 1 to 2 h.

And the “AUC10 hr, geometric mean” value ([12]; oral 50 mg, N = 3)?
Its value is 725 ng·h/mL.

What about the “Tmax, median” value ([12]; oral 50 mg, N = 3) of the same molecule?
Its value is 1.5 h.

What about the “Cmax, geometric mean” value ([12]; oral 100 mg, N = 6) of the same molecule?
Its value is 283.9 ng/mL.

What about the “Half-life, geometric mean” value ([12]; oral 100 mg, N = 6) of the same molecule?
Its value is 6.0 h.

What about the “Tmax, median” value ([12]; oral 100 mg, N = 6) of the same molecule?
The value was 2.5 h.

What about the “AUC24 hr, geometric mean” value ([12]; oral 150 mg, N = 5) of the same molecule?
The value was 3165 ng·h/mL.

What about the “AUCinf, geometric mean” value ([12]; oral 150 mg, N = 5) of the same molecule?
The value was 3509 ng·h/mL.

What about the “Tmax, median” value ([12]; oral 150 mg, N = 5) of the same molecule?
The value was 2 h.

And the “Half-life, geometric mean” value ([12]; oral 200 mg, N = 7)?
The value was 6.5 h.

And the “Tmax, median” value ([12]; oral 200 mg, N = 7)?
Its value is 2 h.

What about the “Magnitude of Improvement: Number of cases with CGI-I 1” value [13, 15] of the same molecule?
The value was 11* cases.

What about the “Magnitude of Improvement: Number of cases with CGI-I 2” value [13, 15] of the same molecule?
Its value is 13 cases.

What about the “Magnitude of Improvement: Number of cases with CGI-I 3” value [13, 15] of the same molecule?
Its value is 4 cases.

What about the “Magnitude of Improvement: Number of cases with CGI-I 4” value [13, 15] of the same molecule?
Its value is 0 cases.

And the “Magnitude of Improvement: Number of cases with CGI-I 5” value [13, 15]?
Its value is 0 cases.

And the “Magnitude of Improvement: Number of cases with CGI-I 6” value [13, 15]?
Its value is 0 cases.

What about the “Magnitude of Improvement: Number of cases with CGI-I 7” value [13, 15] of the same molecule?
Its value is 0 cases.

What about the “number of patients with adverse events following methylone dosing” value ([13]; Cohort 2, N = 28, all ≥65 years of age) of the same molecule?
The value was 3 patients.
